In PubChem BioAssay (NCI):
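All cell lines were grown in 96-well plates and treated with compound for 48 hours. GI50 is the concentration that inhibits growth by half. TGI is the concentration that stops growth completely.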

Tests used:
Assay in all cases: NCI anticancer screen, dose series, 48 h
RPMI-8226 leukemia = test system: RPMI-8226 leukemia
M14 melanoma = test system: M14 melanoma
SF-295 CNS = test system: SF-295 CNS
HT29 colon = test system: HT29 colon
NCI-H23 lung = test system: NCI-H23 lung
UO-31 renal = test system: UO-31 renal
UACC-62 melanoma = test system: UACC-62 melanoma
OVCAR-8 ovarian = test system: OVCAR-8 ovarian
RXF 393 renal = test system: RXF 393 renal
HOP-92 NSCLC = test system: HOP-92 NSCLC
DU-145 prostate = test system: DU-145 prostate
EKVX NSCLC = test system: EKVX NSCLC
KM12 colon = test system: KM12 colon
CCRF-CEM leukemia = test system: CCRF-CEM leukemia
COLO 205 colon = test system: COLO 205 colon
786-0 renal = test system: 786-0 renal
LOX IMVI melanoma = test system: LOX IMVI melanoma
UACC-257 melanoma = test system: UACC-257 melanoma
NCI-H226 lung = test system: NCI-H226 lung
A549 NSCLC = test system: A549 NSCLC
MDA-MB-435 = test system: MDA-MB-435
HCT-116 colon = test system: HCT-116 colon
SK-MEL-2 melanoma = test system: SK-MEL-2 melanoma
IGROV1 ovarian = test system: IGROV1 ovarian
SNB-19 CNS = test system: SNB-19 CNS
PC-3 prostate = test system: PC-3 prostate
MCF7 breast = test system: MCF7 breast
SN12C renal = test system: SN12C renal
SK-OV-3 ovarian = test system: SK-OV-3 ovarian
HL-60(TB) leukemia = test system: HL-60(TB) leukemia
K-562 leukemia = test system: K-562 leukemia
HCT-15 colon = test system: HCT-15 colon
SF-268 CNS = test system: SF-268 CNS
HCC-2998 colon = test system: HCC-2998 colon
OVCAR-5 ovarian = test system: OVCAR-5 ovarian
NCI/ADR-RES ovarian = test system: NCI/ADR-RES ovarian
A498 renal = test system: A498 renal
HOP-62 NSCLC = test system: HOP-62 NSCLC
ACHN renal = test system: ACHN renal
MDA-MB-231 breast = test system: MDA-MB-231 breast
HS 578T breast = test system: HS 578T breast
OVCAR-3 ovarian = test system: OVCAR-3 ovarian
SK-MEL-5 melanoma = test system: SK-MEL-5 melanoma
SNB-75 CNS = test system: SNB-75 CNS
SK-MEL-28 melanoma = test system: SK-MEL-28 melanoma
SW-620 colon = test system: SW-620 colon
SR leukemia = test system: SR leukemia
OVCAR-4 ovarian = test system: OVCAR-4 ovarian
NCI-H522 lung = test system: NCI-H522 lung
T-47D breast = test system: T-47D breast
SF-539 CNS = test system: SF-539 CNS
NCI-H460 lung = test system: NCI-H460 lung
MOLT-4 leukemia = test system: MOLT-4 leukemia
U251 CNS = test system: U251 CNS
BT-549 breast = test system: BT-549 breast
TK-10 renal = test system: TK-10 renal

## COC(=O)[C@@H](C)C[C@H](Cc1cn(C)c2ccccc12)NC(=O)c1csc([C@@H](C[C@H](C(C)C)N(C)C(=O)[C@@H](NC(=O)[C@H]2CCCCN2C)C(C)C)OC(C)=O)n1
RPMI-8226 leukemia
  GI50: 7.76 nM
  TGI: > 16700 nM
M14 melanoma
  GI50: 12.1 nM
  TGI: 645 nM
SF-295 CNS
  GI50: 24 nM
  TGI: > 16700 nM
HT29 colon
  GI50: 6.32 nM
  TGI: > 6310 nM
NCI-H23 lung
  GI50: 71.8 nM
  TGI: > 16700 nM
UO-31 renal
  GI50: 169 nM
  TGI: > 16700 nM
UACC-62 melanoma
  GI50: 7.45 nM
  TGI: > 16700 nM
OVCAR-8 ovarian
  GI50: 30.2 nM
  TGI: > 16700 nM
RXF 393 renal
  GI50: 23 nM
  TGI: > 16700 nM
HOP-92 NSCLC
  GI50: 16.3 nM
  TGI: 4020 nM
DU-145 prostate
  GI50: 8.11 nM
EKVX NSCLC
  GI50: 44 nM
  TGI: > 16700 nM
KM12 colon
  GI50: 10.8 nM
  TGI: > 16700 nM
CCRF-CEM leukemia
  GI50: 7.79 nM
  TGI: > 16700 nM
COLO 205 colon
  GI50: 7.88 nM
  TGI: 85.9 nM
786-0 renal
  GI50: 54.5 nM
  TGI: > 13000 nM
LOX IMVI melanoma
  GI50: 11 nM
  TGI: > 16700 nM
UACC-257 melanoma
  GI50: > 16700 nM
  TGI: > 16700 nM
NCI-H226 lung
  GI50: 98.3 nM
  TGI: > 12000 nM
A549 NSCLC
  GI50: 33.8 nM
  TGI: > 16700 nM
MDA-MB-435
  GI50: 2.15 nM
  TGI: 8.56 nM
HCT-116 colon
  GI50: 7.07 nM
  TGI: > 16700 nM
SK-MEL-2 melanoma
  GI50: 11.5 nM
  TGI: > 16700 nM
IGROV1 ovarian
  GI50: 28.9 nM
  TGI: > 16700 nM
SNB-19 CNS
  GI50: 8.83 nM
  TGI: > 16700 nM
PC-3 prostate
  GI50: 13.9 nM
  TGI: > 16700 nM
MCF7 breast
  GI50: 5.24 nM
  TGI: > 16700 nM
SN12C renal
  GI50: 23.2 nM
  TGI: > 16700 nM
SK-OV-3 ovarian
  GI50: 60.2 nM
  TGI: > 16700 nM
HL-60(TB) leukemia
  GI50: 4.69 nM
  TGI: 19.4 nM
K-562 leukemia
  GI50: 5.47 nM
  TGI: > 16700 nM
HCT-15 colon
  GI50: 66.5 nM
  TGI: > 16700 nM
SF-268 CNS
  GI50: 27.2 nM
  TGI: > 16700 nM
HCC-2998 colon
  GI50: 92.5 nM
  TGI: > 16700 nM
OVCAR-5 ovarian
  GI50: 67.1 nM
  TGI: > 16700 nM
NCI/ADR-RES ovarian
  GI50: 417 nM
  TGI: > 16700 nM
A498 renal
  GI50: 45.6 nM
  TGI: 1120 nM
HOP-62 NSCLC
  GI50: 13.3 nM
  TGI: > 16700 nM
ACHN renal
  GI50: 153 nM
  TGI: > 16700 nM
MDA-MB-231 breast
  GI50: 23.9 nM
  TGI: 966 nM
HS 578T breast
  GI50: 10.5 nM
  TGI: 7580 nM
OVCAR-3 ovarian
  GI50: 5.1 nM
SK-MEL-5 melanoma
  GI50: 5.95 nM
  TGI: 252 nM
SNB-75 CNS
  GI50: 8.87 nM
  TGI: > 14000 nM
SK-MEL-28 melanoma
  GI50: > 4360 nM
  TGI: > 16700 nM
SW-620 colon
  GI50: 8.3 nM
  TGI: > 16700 nM
SR leukemia
  GI50: 2.98 nM
  TGI: > 16700 nM
OVCAR-4 ovarian
  GI50: 575 nM
  TGI: > 16700 nM
NCI-H522 lung
  GI50: 3.03 nM
  TGI: 10.8 nM
T-47D breast
  GI50: > 16700 nM
  TGI: > 16700 nM
SF-539 CNS
  GI50: 17.3 nM
  TGI: 116 nM
NCI-H460 lung
  GI50: 10.1 nM
  TGI: > 6110 nM
MOLT-4 leukemia
  GI50: 13 nM
  TGI: > 16700 nM
U251 CNS
  GI50: 10.2 nM
  TGI: > 16700 nM
BT-549 breast
  GI50: < 11.3 nM
  TGI: 490 nM
TK-10 renal
  GI50: 2770 nM
  TGI: > 16700 nM
